{
  "source": "patent US7879870B2",
  "about": "“Treatment of inflammatory and ulcerative diseases of the bowel with opioid antagonists” (priority 2006, dated 2011)",
  "key": {"[1]": {"test_system": "patients with active Crohn's disease", "test": "Open-labeled pilot trial of LDN in active Crohn's disease: CDAI score, response, remission, fistulas", "assay_type": "in vivo, human", "text": "In the following detailed example, low dose naltrexone, an opioid antagonist, is shown to be a safe and effective treatment for Crohn's disease. In a human clinical experiment, eligible patients were both male and female, at least eighteen years of age, and with the confirmed diagnosis of Crohn's disease by either endocopic or radiographic procedures. Patients had moderate to severely active disease as defined by a Crohn's Disease Activity Index (CDAI score) of >220 and <450. See, Best, et al., “Development of a Crohn's disease activity index. National Cooperative Crohn's Disease Study,” Gastroenterology 70, 439-44 (1976). Patients taking stable doses of aminosalicylates, immunomodulators, corticosteroids, or antibiotics were permitted to enter the study, and they were continued at the same dosage throughout the trial. Women of childbearing age were permitted to enroll and, if not surgically sterile, were required to use adequate contraception (defined as oral or depot contraceptive, IUD, or barrier plus spermicide) for the duration of the study. These women were required to continue adequate contraception for three months after the completion of the study. Exclusion criteria included women who were pregnant or breastfeeding, subjects with an ileostomy, colostomy, ileorectal anastomosis, or short bowel syndrome from surgery, and patients with abnormal liver function tests. Subjects taking tacrolimus, cyclosporine, mycophenolate, or infliximab within eight weeks of enrollment were excluded.\n(§1) Eligibility was assessed by telephone, and potential candidates were scheduled for a screening visit. At the screening visit, patients were subjected to a history and physical examination and laboratory testing (chemistry panel, complete blood count [“CBC”], urinalysis, and erythrocyte sedimentation rate [“ESR”]). Patients were dispensed a seven-day diary to record symptoms of frequency of diarrhea, abdominal pain, and general well-being. Within fourteen days, patients returned for assessment and calculation of the CDAI score. Qualifying subjects were dispensed medication and given a new diary in order to calculate the subsequent month's CDAI score at the conclusion of this visit (baseline). Patients returned after two weeks for an interim visit to evaluate side effects and perform a CBC. Follow-up visits were scheduled for weeks 4, 8, 12, and 16.\nQuality assurance of packaging and purity were confirmed an analytical research laboratory. Patients were treated with LDN orally each evening for three months. A monthly supply of medication was dispensed to patients. On the first visit, an additional ten-day supply of LDN was provided in the event of an appointment delay. Subjects were required to bring the vials to each appointment for counting and drug accountability; extra capsules were returned on the day of the visit and another month's supply dispensed. […]\n(§2) An intent-to-treat analysis was performed in which the available data from all evaluable patients were included in the statistical analysis. The parameters of measurement (CDAI scores, laboratory values, and quality of life surveys) were analyzed by a biostatistician comparing baseline values to those obtained monthly and four weeks post-therapy. A longitudinal data analysis based upon the linear mixed-effects model was applied using PROC MIXED program (available from SAS Institute Inc., Cary, N.C.). The Bonferroni statistical method was used to adjust significance where analysis including multiple comparisons to the baseline were made. P-values for binary outcomes response and remission were calculated using the exact test for binomial proportions."}, "[2]": {"test_system": "patients with active Crohn's disease", "test": "Open-labeled pilot trial of LDN: safety and toxicity (adverse events, body weight)", "assay_type": "in vivo, human", "method": "as §1\nNonhematologic and hematologic toxicity were determined by the WHO criteria. See, Oken, et al., “Toxicity and response criteria of the Eastern Cooperative Oncology Group,” Am. J. Clin. Oncol. 5(6), 649-55 (1982)."}, "human subjects": {"test_system": "human subjects", "test": "Double-blinded placebo-controlled Phase II clinical trial, adverse events", "assay_type": "in vivo", "conditions": "as of the date of application"}, "[3]": {"test_system": "patients with active Crohn's disease", "test": "Open-labeled pilot trial of LDN: quality of life surveys (IBDQ, SF-36 Health Survey)", "assay_type": "in vivo, human", "method": "as §1\nQuality assurance of packaging and purity were confirmed an analytical research laboratory. Patients were treated with LDN orally each evening for three months. A monthly supply of medication was dispensed to patients. On the first visit, an additional ten-day supply of LDN was provided in the event of an appointment delay. Subjects were required to bring the vials to each appointment for counting and drug accountability; extra capsules were returned on the day of the visit and another month's supply dispensed.\nTo assess quality of life, patients completed two standardized quality of life surveys, the Inflammatory Bowel Disease Questionnaire (“IBDQ”) and SF-36 Health Survey. See, Irvine, et al., “Quality of life: a valid and reliable measure of therapeutic efficacy in the treatment of inflammatory bowel disease. Canadian Crohn's Relapse Prevention Trial Study Group,” Gastroenterology 106(2), 287-96 (1994); Brazier, et al., “Validating the SF-36 health survey questionnaire: new outcome measure for primary care,” BMJ305(6846), 160-04 (1992).\nas §2"}, "[4]": {"conditions": "one month (week 4) of LDN 4.5 mg/day"}, "[5]": {"conditions": "week 16, four weeks after discontinuation of LDN"}},
  "note": "Entries after “also recorded” stand apart in the source; their conditions may differ. Structures can show the parent of a compound that is named as a salt.",
  "data": [
    {"smiles": "O=C1CC[C@@]2(O)[C@H]3Cc4ccc(O)c5c4[C@@]2(CCN3CC2CC2)[C@H]1O5", "note": "[LDN, Naltrexone hydrochloride]", "values": [
      {"measurement": "Fistulas in the two subjects with fistulas", "setting": "[1]; LDN therapy, not previously responded to infliximab, hydrochloride", "result": "closure of the fistulas"},
      {"measurement": "Enrolled patients who achieved remission (fraction in words)", "setting": "[1]; at some point during LDN treatment", "result": "Two-thirds"},
      {"measurement": "Patients who achieved a remission", "setting": "[1]; at some point during the 16-week trial", "result": 67, "unit": "%"},
      {"measurement": "CDAI scores versus baseline (in words)", "setting": "[1]; four weeks after completing therapy, hydrochloride", "result": "remained lower than baseline; also recorded: continued improvement in CDAI scores"},
      {"measurement": "CDAI scores with LDN versus baseline (in words)", "setting": "[1]; on therapy, 4.5 mg/day, baseline mean CDAI 356±27", "result": "decreased significantly"},
      {"measurement": "Patients in remission (CDAI score of 150 points or less)", "setting": "[1]; [4]", "result": 29, "unit": "%"},
      {"measurement": "Patients with response to therapy (decrease in CDAI score by 70 points)", "setting": "[1]; [4]", "result": 76, "unit": "%"},
      {"measurement": "Mean CDAI score, decrease from baseline", "setting": "[1]; week 4 of LDN 4.5 mg/day by mouth each evening, 17 patients", "result": 41, "unit": "%"},
      {"measurement": "Patients in remission (CDAI score of 150 points or less)", "setting": "[1]; week 8 of LDN", "result": 53, "unit": "%"},
      {"measurement": "Patients with response to therapy (decrease in CDAI score by 70 points)", "setting": "[1]; week 8 of LDN", "result": 88, "unit": "%"},
      {"measurement": "Mean CDAI score, decrease from baseline", "setting": "[1]; week 8 of LDN 4.5 mg/day", "result": 55, "unit": "%"},
      {"measurement": "Patients in remission (CDAI score of 150 points or less)", "setting": "[1]; week 12 of LDN", "result": 47, "unit": "%"},
      {"measurement": "Patients with response to therapy (decrease in CDAI score by 70 points)", "setting": "[1]; week 12 of LDN", "result": 88, "unit": "%"},
      {"measurement": "Mean CDAI score, decrease from baseline", "setting": "[1]; week 12 of LDN 4.5 mg/day", "result": 49, "unit": "%"},
      {"measurement": "Mean CDAI score, less than baseline", "setting": "[1]; [5]", "result": 45, "unit": "%"},
      {"measurement": "Patients in remission (CDAI score of 150 points or less)", "setting": "[1]; [5]", "result": 33, "unit": "%"},
      {"measurement": "Patients with response to therapy (decrease in CDAI score by 70 points)", "setting": "[1]; [5]", "result": 73, "unit": "%"},
      {"measurement": "Sleep disturbances, number of patients", "setting": "[2]; 17 patients enrolled", "result": 7, "unit": "patients"},
      {"measurement": "Subjects who changed timing of LDN from evening to morning due to insomnia", "setting": "[2]; 17 patients enrolled", "result": "Five"},
      {"measurement": "Unusual dreams, number of patients reporting", "setting": "[2]; 17 patients enrolled", "result": "one"},
      {"measurement": "Dose reduction for sleep disturbances", "setting": "[2]; in vivo", "result": "In no instance was a dose reduction necessary"},
      {"measurement": "Safety profile", "setting": "[2]; pilot study, 4.5 mg daily", "result": "infrequent and minor side effects and no known suppression of immunity or increased risk of secondary infections"},
      {"measurement": "Body weight", "setting": "[2]; screening visit through week 16", "result": "no significant change in body weight"},
      {"measurement": "Serious adverse events", "setting": "human subjects", "result": "has not revealed any serious adverse events"},
      {"measurement": "SF-36 physical function, greater than baseline", "setting": "[3]; 4 and 8 weeks of LDN", "result": 23, "unit": "%"},
      {"measurement": "Quality of life by both surveys (IBDQ and SF-36) compared to baseline", "setting": "[3]; on LDN therapy", "result": "significant improvement; also recorded: improved the quality of life"},
      {"measurement": "SF-36 health perception, greater than baseline", "setting": "[3]; week 8 of LDN", "result": 33, "unit": "%"},
      {"measurement": "SF-36 health perception, greater than baseline", "setting": "[3]; week 12 of LDN", "result": 49, "unit": "%"},
      {"measurement": "SF-36 social function, greater than baseline", "setting": "[3]; weeks 4, 8 and 12, only statistically different at week 8", "result": 70, "unit": "%"},
      {"measurement": "SF-36 bodily pain, improvement", "setting": "[3]; weeks 4, 8 and 12 of LDN", "result": "61-65%"},
      {"measurement": "SF-36 emotional health versus baseline", "setting": "[3]; weeks 4, 8 and 12 of LDN", "result": "comparable to baseline values"},
      {"measurement": "SF-36 physical role scores, improvement", "setting": "[3]; weeks 4, 8 and 12 of LDN", "result": "5- to 8 fold"},
      {"measurement": "SF-36 role-emotional versus baseline", "setting": "[3]; weeks 4, 8 and 12 of LDN", "result": "comparable to baseline values"},
      {"measurement": "IBDQ survey, quality of life compared to baseline", "setting": "[3]; weeks 4, 8 and 12 on LDN and one month after completion", "result": "significant improvement in quality of life"},
      {"measurement": "SF-36 energy scores, greater than at initiation of therapy", "setting": "[3]; weeks 8 and 12 of LDN", "result": "at least 2 fold"}
    ]}
  ]
}
